Read-outs that look alike come from different tables or passages of the source. Where a SMILES comes first, the peptide text is derived from it. [ ]: non-standard residue; d: D form. Hyp = O=C(O)[C@@H]1C[C@@H](O)CN1
Experiments:
[1] = tested on: cerebellar granule cells (CGC); settings: Wistar, rat, 6 days
Experimental: (§1) 15 to 25-week-old male and female Wistar rats were provided by purchase from CREA Japan, Inc. Thereafter, the rats were reared under the following conditions: the temperature was 23±2° C., the relative humidity was 55±10%, the lighting cycle was 12 hours, the light period started at 7:00 and ended at 19:00, and the rats were fed with a solid feed (“CE-2” (trade name) manufactured by CREA Japan, Inc) and allowed to freely access drinking water. Under the same conditions as described above, the rats were mated to obtain 7-day-old rats. Further, 3 to 8-day-old Wistar rats were provided by purchase from CREA Japan, Inc.
(§2) The Wistar rats were reared to the age of 7 to 9 days under the above-described conditions, and cerebella were then excised from these rats, and dispersed by the below-described method using the dispersion solutions shown in Table 4 (liquids I to V). In this way, dispersions containing granule cells and other cerebral nerve cells (hereinafter, these cells are also referred to collectively as “cerebellar granule cells (CGC)”) from the cerebella. The cerebellar granule cells (CGC) are cerebral nerve cells. Thereafter, the CGC contained in the dispersions was cultured. […] The method for preparing the cerebellar granule cells (CGC) is as follows.
(§3) First, ten of the 7 to 9-day-old rats were decapitated, and cerebella were excised in the clean bench, and then formed into minced paste with a razor after removal of unnecessary tissues, blood vessels, chorionic membranes and the like. Liquid I was added to the paste to give a suspension, and the suspension was centrifuged at 1,000 rpm for 30 seconds to obtain a first separate liquid containing a supernatant and a cell group. The supernatant was removed from the first separate liquid, liquid II pre-warmed to 37° C. in a thermostatic bath was then added to the remaining cell group little by little, and the mixture was stirred, transferred into a 50 mL medium bottle, and further stirred at 37° C. for 15 minutes to perform tissue digestion with trypsin.
(§4) Next, liquid IV was added to the medium bottle to deactivate the trypsin, and the mixture was centrifuged at 1,000 rpm for 30 seconds to obtain a second separate liquid containing a supernatant and a cell group. The supernatant was removed from the second separate liquid, and a small amount of liquid III was then added to the remaining cell group with a Pasteur pipette to disperse the cell group. Thereafter, the mixture was left standing for 15 minutes to obtain a third separate liquid containing a supernatant and a cell group, and the supernatant was taken into liquid V. To the cell group remaining in the third separate liquid, a small amount of liquid III was added to redisperse the cell group. Thereafter, the mixture was left standing for 5 to 10 minutes to obtain a fourth separate liquid containing a supernatant and a cell group, and the supernatant was taken into liquid V containing the supernatant of the third separate liquid.
(§5) Liquid V containing the supernatant of the third separate liquid and the supernatant of the fourth separate liquid was centrifuged at 1,000 rpm for 5 minutes to obtain a fifth separate liquid containing a supernatant and a cell group. The supernatant was removed from the fifth separate liquid, a basal medium (BME: Basal Medium Eagle manufactured by Sigma-Aldrich Co. LLC) was then added to the remaining cell group, and the mixture was stirred to obtain a mixed liquid containing cerebellar granule cells (CGC) and BME. Thereafter, the mixed liquid was stained with a trypan Blue solution with a concentration of 0.4 mass %, and the number of the stained cells and the viability thereof were measured.

[2] = tested on: PC12 cells derived from a rat adrenal pheochromocytoma; settings: PTL 2; cited from earlier work
[3] = tested on: cerebellar granule cells (CGC); assay: Evaluation Test 2: viability of primary-cultured CGC by MTT assay (differentiation promoting action); settings: for Viability (%): KCl 15 mM, MTT day 7, percent of control sample with KCl 25 mM
Experimental: as §1, §2, §3, §4, §5

[4] = tested on: cerebellar granule cells (CGC); settings: Wistar, rat, 6 days; remark: listed apart in the source
Experimental: Next, K+5 mM serum (+) BME was added to the mixed liquid in such a manner that the cell density of living cells was 1.2×10^5 cells/mL, and the mixture was suspended to obtain a culture sample. The culture sample was seeded at 0.766 mL per well in a 12-well plate pre-coated with poly-L-lysin (PLL) with a concentration of 50 μg/mL, and was cultured in an incubator environment of CO2 with a concentration of 5 vol % at 37° C.
On day 1 after the start of culture, to each well was added cytosine β-D-arabinofuranoside (AraC) to a final concentration of 10 μM for the purpose of suppressing growth of non-neuronal cells while maintaining only CGC. Further, in the below-described control sample, KCl was added to a final concentration of 25 mM. In other samples (samples containing the peptides or amino acids shown in Tables 5 to 7 below), KCl was added with an adjustment made to a final concentration of 15 mM.
Specifically, the percent ratio of the number of living cells in each sample to the number of living cells in the control sample having a KCl concentration of 25 mM was determined, and subjected to statistical processing to evaluate significance of the differentiation promoting action on CGC. […]

[5] = tested on: rats; settings: when transferred into the cerebrospinal fluid, NPL 2; cited from earlier work

Molecule	Viability (%) ([1]; 0.1 μM)	Viability (%) ([1]; 1 μM)	Viability (%) ([1]; 10 μM)	Viability (%) ([1]; 100 μM)	Viability (%) ([1]; 1000 μM)	also measured
O=C1NCC(=O)N2C[C@H](O)C[C@@H]12 [C-OG]	57.8	63.2	54.2	50.1	62.7	–
N[C@@H](CCC(=O)O)C(=O)N1C[C@H](O)C[C@H]1C(=O)O [EO] (H-Glu-[Hyp]-OH; N-terminus and C-terminus assumed)	52.9	54.8	86.8	81.2	86.7	–
O=C1N[C@@H](Cc2cnc[nH]2)C(=O)N2CCC[C@@H]12 [C-HP]	–	–	65.1	63.9	69.2	–
Gly-Pro-Ala	–	–	–	–	–	neurogenesis promoting action [2]: has a neurogenesis promoting action
CN[C@H](CC(=O)O)C(=O)O [NMDA, N-methyl-D-aspartic acid]	–	–	–	–	–	viability at 100 µM ([3]; Rattus norvegicus, 168 h): 93.4%
NCC(=O)N1CCC[C@H]1C(=O)O [GP] (H-Gly-Pro-OH; N-terminus and C-terminus assumed)	–	–	–	–	–	Viability (%) ([3]; 0.1 μM added days 1 and 4): 48.4%; Viability (%) ([3]; 1 μM added days 1 and 4): 61.2%; Viability (%) ([3]; 10 μM added days 1 and 4): 65.7%; Viability (%) ([3]; 100 μM added days 1 and 4): 63.4%; Viability (%) ([3]; 1000 μM added days 1 and 4): 72.2%
N[C@@H](CCC(=O)N[C@@H](CS)C(=O)NCC(=O)O)C(=O)O [Glutathione, glutathione]	–	–	–	–	–	Viability (%) ([3]; 0.01 μM added days 1 and 4): 73.9%; Viability (%) ([3]; 0.1 μM added days 1 and 4): 63.5%; Viability (%) ([3]; 1 μM added days 1 and 4): 63.5%; Viability (%) ([3]; 10 μM added days 1 and 4): 63.6%; Viability (%) ([3]; 100 μM added days 1 and 4): 60.0%; Viability (%) ([3]; 1000 μM added days 1 and 4): 67.1%
NCC(=O)N1CCC[C@H]1C(=O)N1C[C@H](O)C[C@H]1C(=O)O [GPO] (H-Gly-Pro-[Hyp]-OH)	–	–	–	–	–	Viability (%) ([3]; 0.1 μM added days 1 and 4): 56.3%; Viability (%) ([3]; 1 μM added days 1 and 4): 58.4%; Viability (%) ([3]; 10 μM added days 1 and 4): 59.0%; Viability (%) ([3]; 100 μM added days 1 and 4): 55.8%; Viability (%) ([3]; 1000 μM added days 1 and 4): 61.5%
O=C1[C@@H]2C[C@@H](O)CN2C(=O)[C@@H]2CCCN12 [C-PO]	55.7	58.4	73.2	70.6	68.4	–
BDNF: brain-derived neurotrophic factor, Reference Example	–	–	–	–	–	Viability (%) ([3]; 100 ng/mL added days 1 and 4): 76.6%
N[C@@H](CCC(=O)O)C(=O)N1C[C@H](O)C[C@H]1C(=O)NCC(=O)O [EOG, Glu-Hyp-Gly] (H-Glu-[Hyp]-Gly-OH; N-terminus and C-terminus assumed)	69.9	–	–	74.4	77.7	Viability (%) ([4]; 3 μM): 67.2%; Viability (%) ([4]; 7 μM): 72.7%
O=C(O)[C@@H]1C[C@@H](O)CN1C(=O)[C@@H]1CCCN1 [PO, Pro-Hyp] (H-Pro-[Hyp]-OH; N-terminus and C-terminus assumed)	52.6	51.8	76.3	72.9	74.0	antidepressant effect [5]: exhibited an antidepressant effect
O=C(O)CNC(=O)[C@@H]1C[C@@H](O)CN1 [OG] (H-[Hyp]-Gly-OH)	–	–	–	–	–	Viability (%) ([3]; 0.1 μM added days 1 and 4): 54.5%; Viability (%) ([3]; 1 μM added days 1 and 4): 61.8%; Viability (%) ([3]; 10 μM added days 1 and 4): 77.6%; Viability (%) ([3]; 100 μM added days 1 and 4): 72.8%; Viability (%) ([3]; 1000 μM added days 1 and 4): 71.1%
IGF-1: listed in Table 5 only, not explained in the text	–	–	–	–	–	Viability (%) ([3]; 100 ng/mL added days 1 and 4): 67.1%
N[C@@H](CCC(=O)O)C(=O)O [Glutamic acid, glutamic acid]	–	–	–	–	–	viability at 10 µM ([3]; Rattus norvegicus, 168 h): 58.1%; viability at 100 µM ([3]; Rattus norvegicus, 168 h): 52.4%; viability at 1000 µM ([3]; Rattus norvegicus, 168 h): 42.4%
C[C@H](N)C(=O)N1C[C@H](O)C[C@H]1C(=O)O [AO] (H-Ala-[Hyp]-OH; N-terminus and C-terminus assumed)	55.1	57.0	66.1	64.7	65.9	–
O=C1NCC(=O)N2CCC[C@@H]12 [C-GP]	–	–	51.2	46.4	53.3	–
O=C(O)CC[C@@H]1NC(=O)[C@@H]2C[C@@H](O)CN2C1=O [C-EO]	51.3	52.0	64.8	65.0	69.3	–

Reference: patent US12569532B2, “Brain function regulating agent, and food or beverage product containing same” (NITTA GELATIN INC., priority 2019, dated 2026)
